Drawing on US20170334891A1, “ENHANCER OF ZESTE HOMOLOG 2 INHIBITORS” (GLAXOSMITHKLINE INTELLECTUAL PROPERTY (NO.2) LIMITED, priority 2014, published 2017), this text covers IC50 for 19 compounds.

T1 sequence (Q15910 whole entry): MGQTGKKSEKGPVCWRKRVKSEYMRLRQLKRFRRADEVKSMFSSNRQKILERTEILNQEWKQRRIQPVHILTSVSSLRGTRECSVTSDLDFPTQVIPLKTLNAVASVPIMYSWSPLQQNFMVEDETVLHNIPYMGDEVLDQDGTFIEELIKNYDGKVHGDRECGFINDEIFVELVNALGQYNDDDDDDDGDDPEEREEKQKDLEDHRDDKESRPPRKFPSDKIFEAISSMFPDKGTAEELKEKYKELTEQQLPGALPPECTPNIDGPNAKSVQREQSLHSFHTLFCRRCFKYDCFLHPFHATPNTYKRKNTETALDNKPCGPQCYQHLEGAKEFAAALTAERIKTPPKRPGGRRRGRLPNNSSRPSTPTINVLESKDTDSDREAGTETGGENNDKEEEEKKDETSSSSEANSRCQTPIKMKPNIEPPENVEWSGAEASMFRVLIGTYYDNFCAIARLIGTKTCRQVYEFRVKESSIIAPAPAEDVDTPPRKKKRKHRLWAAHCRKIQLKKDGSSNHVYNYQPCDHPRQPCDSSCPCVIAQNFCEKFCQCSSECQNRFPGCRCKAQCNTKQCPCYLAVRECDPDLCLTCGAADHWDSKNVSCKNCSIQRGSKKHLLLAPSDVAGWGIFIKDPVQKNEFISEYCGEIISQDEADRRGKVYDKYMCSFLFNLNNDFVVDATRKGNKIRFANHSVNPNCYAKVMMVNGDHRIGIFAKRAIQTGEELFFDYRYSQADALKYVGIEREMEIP
T1 sequence (O75530 whole entry partner): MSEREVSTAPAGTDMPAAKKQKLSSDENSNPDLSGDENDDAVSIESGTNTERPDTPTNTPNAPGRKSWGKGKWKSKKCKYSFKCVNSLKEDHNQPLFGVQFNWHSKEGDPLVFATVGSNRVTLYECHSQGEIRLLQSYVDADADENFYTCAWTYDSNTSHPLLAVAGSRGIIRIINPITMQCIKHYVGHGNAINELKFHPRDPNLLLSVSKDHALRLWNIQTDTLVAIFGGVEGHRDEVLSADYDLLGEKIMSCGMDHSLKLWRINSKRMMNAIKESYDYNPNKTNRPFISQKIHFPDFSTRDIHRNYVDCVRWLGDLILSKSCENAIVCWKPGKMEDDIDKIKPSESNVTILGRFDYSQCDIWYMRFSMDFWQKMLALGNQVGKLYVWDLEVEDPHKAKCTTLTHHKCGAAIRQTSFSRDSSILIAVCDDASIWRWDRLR
T1 sequence (Q15022 whole entry partner): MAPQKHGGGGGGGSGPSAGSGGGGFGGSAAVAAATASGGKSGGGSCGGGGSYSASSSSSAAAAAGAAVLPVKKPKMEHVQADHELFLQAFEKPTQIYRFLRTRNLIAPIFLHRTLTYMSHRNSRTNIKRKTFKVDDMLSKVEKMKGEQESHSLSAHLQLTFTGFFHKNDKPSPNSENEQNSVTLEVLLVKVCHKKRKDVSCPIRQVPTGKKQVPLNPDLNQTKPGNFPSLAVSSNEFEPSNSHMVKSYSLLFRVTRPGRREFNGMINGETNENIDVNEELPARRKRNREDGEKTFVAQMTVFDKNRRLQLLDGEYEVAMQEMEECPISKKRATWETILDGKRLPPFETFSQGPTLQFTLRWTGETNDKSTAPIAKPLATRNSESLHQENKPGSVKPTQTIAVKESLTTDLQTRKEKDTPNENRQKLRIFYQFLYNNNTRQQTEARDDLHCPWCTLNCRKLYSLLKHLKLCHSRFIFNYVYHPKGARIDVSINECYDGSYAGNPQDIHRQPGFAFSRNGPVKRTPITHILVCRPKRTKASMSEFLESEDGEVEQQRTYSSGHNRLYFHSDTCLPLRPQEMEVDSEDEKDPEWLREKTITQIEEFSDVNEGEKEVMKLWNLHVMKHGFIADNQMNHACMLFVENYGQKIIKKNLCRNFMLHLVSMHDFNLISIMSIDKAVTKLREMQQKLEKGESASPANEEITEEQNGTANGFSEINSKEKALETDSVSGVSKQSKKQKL
T1 sequence (Q09028 whole entry partner): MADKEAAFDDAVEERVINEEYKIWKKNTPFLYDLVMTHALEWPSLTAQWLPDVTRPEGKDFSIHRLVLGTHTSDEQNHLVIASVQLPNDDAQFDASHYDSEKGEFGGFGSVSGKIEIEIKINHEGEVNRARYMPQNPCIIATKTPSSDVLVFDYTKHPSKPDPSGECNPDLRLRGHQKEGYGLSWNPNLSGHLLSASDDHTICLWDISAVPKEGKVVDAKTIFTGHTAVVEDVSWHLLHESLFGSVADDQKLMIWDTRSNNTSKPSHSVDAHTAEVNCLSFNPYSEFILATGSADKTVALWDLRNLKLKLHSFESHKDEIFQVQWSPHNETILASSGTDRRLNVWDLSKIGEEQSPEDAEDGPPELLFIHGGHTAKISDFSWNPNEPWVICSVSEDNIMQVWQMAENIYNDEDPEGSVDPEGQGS
T1 sequence (Q6ZN18 whole entry partner): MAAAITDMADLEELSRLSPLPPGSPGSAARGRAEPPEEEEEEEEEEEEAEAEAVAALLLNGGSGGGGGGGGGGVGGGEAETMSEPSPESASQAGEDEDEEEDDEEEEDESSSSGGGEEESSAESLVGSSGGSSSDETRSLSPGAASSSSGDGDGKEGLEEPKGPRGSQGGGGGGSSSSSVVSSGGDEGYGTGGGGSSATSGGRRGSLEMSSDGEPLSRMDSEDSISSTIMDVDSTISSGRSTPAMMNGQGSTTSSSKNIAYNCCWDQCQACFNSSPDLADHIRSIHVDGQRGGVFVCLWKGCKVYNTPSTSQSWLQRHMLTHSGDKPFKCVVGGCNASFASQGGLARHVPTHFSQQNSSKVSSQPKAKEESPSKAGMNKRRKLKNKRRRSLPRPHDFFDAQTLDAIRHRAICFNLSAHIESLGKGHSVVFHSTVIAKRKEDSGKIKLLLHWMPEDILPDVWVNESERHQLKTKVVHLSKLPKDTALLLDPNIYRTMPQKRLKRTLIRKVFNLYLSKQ

This experiment concerns the target T1, EZH2 within the PRC2 complex (Homo sapiens, UniProt Q15910).
T1 construct: FLAG; made in house; host or cells: Sf9 cells
Briefly: EZH2 methyltransferase scintillation proximity assay (SPA). Type of experiment: biochemical. The conditions noted are these: Human PRC2 5 member complex (FLAG-EZH2, EED, SUZ12, RbAp48, AEBP2), 1 nM enzyme, biotinylated histone H3K27 peptide, 3H-SAM, 60 min at room temperature. How it is done: Compounds contained herein were evaluated for their ability to inhibit the methyltransferase activity of EZH2 within the PRC2 complex. Human PRC2 complex was prepared by co-expressing each of the 5 member proteins (FLAG-EZH2, EED, SUZ12, RbAp48, AEBP2) in Sf9 cells followed by co-purification. Enzyme activity was measured in a scintillation proximity assay (SPA) where a tritiated methyl group is transferred from 3H-SAM to a lysine residue on a biotinylated, unmethylated peptide substrate derived from histone H3. The peptides were captured on streptavidin-coated SPA beads and the resulting signal was read on a ViewLux plate reader.
• 1. Prepare 10 mM stock of compounds from solid in 100% DMSO. • 2. Set up an 11-point serial dilution (1:4 dilution, top concentration 10 mM) in 100% DMSO for each test compound in a 384 well plate leaving columns 6 and 18 for DMSO controls. • 3. Dispense 10 nL of compound from the dilution plate into reaction plates (Corning, 384-well polystyrene NBS, Cat#3673).
Prepare the following solutions: • 1. 1× Base Buffer, 50 mM Tris-HCl, pH 8, 2 mM MgCl2: Per 1 L of base buffer, combine 1 M Tris-HCl, pH 8 (50 mL), 1 M MgCl2 (2 mL), and distilled water (948 mL). • 2. 1× Assay Buffer: Per 10 mL of 1× Assay Buffer, combine 1× Base Buffer (9.96 mL), 1 M DTT (40 uL), and 10% Tween-20 (1 uL) to provide a final concentration of 50 mM Tris-HCl, pH 8, 2 mM MgCl2, 4 mM DTT, 0.001% Tween-20. • 3. 2× Enzyme Solution: Per 10 mL of 2× Enzyme Solution, combine 1× Assay Buffer (9.99 mL) and 3.24 uM EZH2 5 member complex (6.17 uL) to provide a final enzyme concentration of 1 nM. • 4. SPA Bead Solution: Per 1 mL of SPA Bead Solution, combine Streptavidin coated SPA beads (PerkinElmer, Cat# RPNQ0261, 40 mg) and 1× Assay Buffer (1 mL) to provide a working concentration of 40 mg/mL. • 5. 2× Substrate Solution: Per 10 mL of 2× Substrate Solution, combine 40 mg/mL SPA Bead Solution (375 uL), 1 mM biotinylated histone H3K27 peptide (200 uL), 12.5 uM 3H-SAM (240 uL; 1 mCi/mL), 1 mM cold SAM (57 uL), and 1× Assay Buffer (9.13 mL) to provide a final concentration of 0.75 mg/mL SPA Bead Solution, 10 uM biotinylated histone H3K27 peptide, 0.15 uM 3H-SAM (˜12 uCi/mL 3H-SAM), and 2.85 uM cold SAM. • 6. 2.67× Quench Solution: Per 10 mL of 2.67× Quench Solution, combine 1× Assay Buffer (9.73 mL) and 10 mM cold SAM (267 uL) to provide a final concentration of 100 uM cold SAM.
• 1. Stamp 10 nL/well of 1000× Compound to test wells (as noted above). • 2. Stamp 10 nL/well of 100% DMSO to columns 6 & 18 (high and low controls, respectively).
• 1. Dispense 5 uL/well of 1× Assay Buffer to column 18 (low control reactions). • 2. Dispense 5 uL/well of 2× Substrate Solution to columns 1-24 (note: substrate solution should be mixed to ensure homogeneous bead suspension before dispensing into matrix reservoir). • 3. Dispense 5 uL/well of 2× Enzyme Solution to columns 1-17, 19-24. • 4. Incubate the reaction for 60 min at room temperature.
• 1. Dispense 6 uL/well of the 2.67× Quench Solution to columns 1-24. • 2. Seal assay plates and spin for ˜1 min at 500 rpm. • 3. Dark adapt plates in the ViewLux instrument for 15-60 min.
• 1. Read the assay plates on the Viewlux Plate Reader utilizing the 613 nm emission filter or clear filter (300 s exposure). Reagent addition can be done manually or with automated liquid handler.
Percent inhibition was calculated relative to the DMSO control for each compound concentration and the resulting values were fit using standard IC50 fitting parameters within the ABASE data fitting software package.
The IC50 values of <10 nM indicate that the activity of compound was approaching the limit of detection in the assay. Repeating the assay run(s) may result in somewhat different IC50 values.
On the technique in general: Scintillation proximity formats need no separation of bound from free tracer.
In the case of `CCC(=C1CCN(c2ncccn2)CC1)c1scc(C(=O)NCc2c(C)cc(C)[nH]c2=O)c1C` [Example 13, N-((4,6-Dimethyl-2-oxo-1,2-dihydropyridin-3-yl)methyl)-4-methyl-5-(1-(1-(pyrimidin-2-yl)piperidin-4-ylidene)propyl)thiophene-3-carboxamide], 13 nM corresponded to half-maximal inhibition (IC50). In other words, the double-digit nanomolar range.
Turning to `CCC(c1sc2c(c1C)C(=O)N(Cc1c(C)cc(C)[nH]c1=O)CC2)C1CCN(/C(=N\C#N)NC)CC1` (stereo not shown) [Example 18, N′-Cyano-4-(1-(5-((4,6-dimethyl-2-oxo-1,2-dihydropyridin-3-yl)methyl)-3-methyl-4-oxo-4,5,6,7-tetrahydrothieno[3,2-c]pyridin-2-yl)propyl)-N-methylpiperidine-1-carboximidamide], the IC50 is no more than 10 nM.
`CCC(c1sc2c(c1C)C(=O)N(Cc1c(C)cc(C)[nH]c1=O)CC2)N1CCC(N(C)C)CC1` (stereo not shown) [Example 9] registered an IC50 of 50 nM.
As for `CCC(=C1CCN(CC(C)(C)F)CC1)c1scc(C(=O)NCc2c(C)cc(C)[nH]c2=O)c1C` [Example 2, N-((4,6-Dimethyl-2-oxo-1,2-dihydropyridin-3-yl)methyl)-5-(1-(1-(2-fluoro-2-methylpropyl)piperidin-4-ylidene)propyl)-4-methylthiophene-3-carboxamide], the IC50 was no more than 10 nM.
Under `CCC(=C1CCN(CC(F)F)CC1)c1scc(C(=O)NCc2c(C)cc(C)[nH]c2=O)c1C` [Example 20, 5-(1-(1-(2,2-Difluoroethyl)piperidin-4-ylidene)propyl)-N-((4,6-dimethyl-2-oxo-1,2-dihydropyridin-3-yl)methyl)-4-methylthiophene-3-carboxamide] stands no more than 10 nM; under `Cc1cc(C)c(CNC(=O)c2csc([C@H](C)C3CCN(CC(C)(F)F)CC3)c2C)c(=O)[nH]1` [Example 23, (R)-5-(1-(1-(2,2-Difluoropropyl)piperidin-4-yl)ethyl)-N-((4,6-dimethyl-2-oxo-1,2-dihydropyridin-3-yl)methyl)-4-methylthiophene-3-carboxamide], no more than 10 nM; under `CCC(c1sc2c(c1C)C(=O)N(Cc1c(C)cc(C)[nH]c1=O)CC2)C1CCN(CC(C)F)CC1` (stereo not shown) [Example 17, 5-((4,6-Dimethyl-2-oxo-1,2-dihydropyridin-3-yl)methyl)-2-(1-(1-(2-fluoropropyl)piperidin-4-yl)propyl)-3-methyl-6,7-dihydrothieno[3,2-c]pyridin-4(5H)-one], 100 nM.
With `CCC(=C1CCN(CC(C)(F)F)CC1)c1scc(C(=O)NCc2c(C)cc(C)[nH]c2=O)c1C` [Example 1, 5-(1-(1-(2,2-Difluoropropyl)piperidin-4-ylidene)propyl)-N-((4,6-dimethyl-2-oxo-1,2-dihydropyridin-3-yl)methyl)-4-methylthiophene-3-carboxamide] the figure was 16 nM; with `CCC(=C1CCN(O)CC1)c1scc(C(=O)NCc2c(C)cc(C)[nH]c2=O)c1C` [Example 8, N-((4,6-Dimethyl-2-oxo-1,2-dihydropyridin-3-yl)methyl)-5-(1-(1-hydroxypiperidin-4-ylidene)propyl)-4-methylthiophene-3-carboxamide], 16 nM.
Under `CCC(=C1CCN(Cc2ncco2)CC1)c1scc(C(=O)NCc2c(C)cc(C)[nH]c2=O)c1C` [Example 12, N-((4,6-Dimethyl-2-oxo-1,2-dihydropyridin-3-yl)methyl)-4-methyl-5-(1-(1-(oxazol-2-ylmethyl)piperidin-4-ylidene)propyl)thiophene-3-carboxamide] stands no more than 10 nM.
Turning to `CCC(c1scc(C(=O)NCc2c(C)cc(C)[nH]c2=O)c1C)C1CCN(/C(=N\C#N)NC)CC1` (stereo not shown) [Example 19, 5-(1-(1-(N′-Cyano-N-methylcarbamimidoyl)piperidin-4-yl)propyl)-N-((4,6-dimethyl-2-oxo-1,2-dihydropyridin-3-yl)methyl)-4-methylthiophene-3-carboxamide], the IC50 is 316 nM. In other words, the sub-micromolar range.
Under `CCC(=C1CCN(/C(=N/C#N)NC)CC1)c1scc(C(=O)NCc2c(C)cc(C)[nH]c2=O)c1C` [Example 15, 5-(1-(1-(N′-Cyano-N-methylcarbamimidoyl)piperidin-4-ylidene)propyl)-N-((4,6-dimethyl-2-oxo-1,2-dihydropyridin-3-yl)methyl)-4-methylthiophene-3-carboxamide] stands no more than 10 nM; under `CCC(=C1CCN(CC(F)(F)F)CC1)c1scc(C(=O)NCc2c(C)cc(C)[nH]c2=O)c1C` [Example 3, N-((4,6-Dimethyl-2-oxo-1,2-dihydropyridin-3-yl)methyl)-4-methyl-5-(1-(1-(2,2,2-trifluoroethyl)piperidin-4-ylidene)propyl)thiophene-3-carboxamide], no more than 10 nM; under `CCC(c1sc2c(c1C)C(=O)N(Cc1c(C)cc(C)[nH]c1=O)CC2)C1CCN(CC(C)(F)F)CC1` (stereo not shown) [Example 16, 2-(1-(1-(2,2-Difluoropropyl)piperidin-4-yl)propyl)-5-((4,6-dimethyl-2-oxo-1,2-dihydropyridin-3-yl)methyl)-3-methyl-6,7-dihydrothieno[3,2-c]pyridin-4(5H)-one], 100 nM.
Under `Cc1cc(C)c(CNC(=O)c2csc([C@H](C)C3CCN(CC(F)F)CC3)c2C)c(=O)[nH]1` [Example 22, (R)-5-(1-(1-(2,2-Difluoroethyl)piperidin-4-yl)ethyl)-N-((4,6-dimethyl-2-oxo-1,2-dihydropyridin-3-yl)methyl)-4-methylthiophene-3-carboxamide] stands no more than 10 nM.
`CCC(c1scc(C(=O)NCc2c(C)cc(C)[nH]c2=O)c1C)C1CCN(CC(F)(F)F)CC1` (racemic) [Example 11, N-((4,6-Dimethyl-2-oxo-1,2-dihydropyridin-3-yl)methyl)-4-methyl-5-(1-(1-(2,2,2-trifluoroethyl)piperidin-4-yl)propyl)thiophene-3-carboxamide] had a half-inhibitory concentration (IC50) of 20 nM.
Under `CC[C@H](c1scc(C(=O)NCc2c(C)cc(C)[nH]c2=O)c1C)C1CCN(CC(C)(F)F)CC1` [Example 5, (S)-5-(1-(1-(2,2-Difluoropropyl)piperidin-4-yl)propyl)-N-((4,6-dimethyl-2-oxo-1,2-dihydropyridin-3-yl)methyl)-4-methylthiophene-3-carboxamide] stands 501 nM.
With `CCC(c1scc(C(=O)NCc2c(C)cc(C)[nH]c2=O)c1C)C1CCN(CC(C)(C)F)CC1` (racemic) [Example 6, N-((4,6-Dimethyl-2-oxo-1,2-dihydropyridin-3-yl)methyl)-5-(1-(1-(2-fluoro-2-methylpropyl)piperidin-4-yl)propyl)-4-methylthiophene-3-carboxamide] the figure was 50 nM.
With `CC[C@@H](c1scc(C(=O)NCc2c(C)cc(C)[nH]c2=O)c1C)C1CCN(CC(F)F)CC1` [Example 21, (R)-5-(1-(1-(2,2-Difluoroethyl)piperidin-4-yl)propyl)-N-((4,6-dimethyl-2-oxo-1,2-dihydropyridin-3-yl)methyl)-4-methylthiophene-3-carboxamide] the figure was no more than 10 nM.

What is called IC50 is the concentration that gives 50% inhibition. The low end stands for higher potency, the high end for lower potency.
